SMILES strings stand for the structures.

Experiment [1] relates to LIM1215 cell line (gastric). Put plainly: MTT cytotoxicity assay, LIM1215. Type of experiment: cell-based. The conditions noted are these: LIM1215; MTT assay, 72 hour incubation; read-out: Cytotoxicity LIM1215 (72 hours). In short, it runs like this:
(§1)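 Cells seeded at 1800/well in RPMI1640 + 10% FBS, adhered overnight, then exposed to compound 72 h at 37° C. Survival by MTT (500 μg/ml, 4 h), formazan in DMSO read at 540 nm, blank-corrected versus untreated wells; IC50 read from concentration–survival plot.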

Experiment [2] deals with SW620 cell line (gastric). Put plainly: MTT cytotoxicity assay, SW620. Type of experiment: cell-based. The conditions noted are these: Homo sapiens, SW-620; MTT assay, 72 hour incubation; read-out: Cytotoxicity SW620 (72 hours). The procedure, abridged: as §1
Experiment [3] has as its system fluorescently labelled DNA duplex 5′-[…]-3′. Put plainly: FRET DNA melting, FIG. 13 bottom duplex (intrastrand). Type of experiment: binding. The text has this: FRET DNA melting studies were undertaken on 13 using two fluorescently labelled sequences. The sequences (FIG. 13) were designed to provide additional evidence that 13 can form inter- and intrastrand cross-links. Inosines were inserted in place of traditional DNA bases to limit the number of binding sites available for 13 to interact with.
Oligonucleotides were obtained from ATDbio (Southampton, UK) in lyophilised form. They were labelled with a fluorophore molecule (F=fluorescein) at the 5′-end and a quencher molecule (Q=dabcyl) at the 3′-end of the complementary strand. Each oligonucleotide was dissolved in distilled H2O to form stock solutions of 100 PM. Working solutions of 5 μM were prepared by diluting the stock solution with distilled H2O. […]
(§2) The reaction mixture was comprised of 4 μL of 250 mM phosphate buffer (final concentration of 50 mM), 4 μL flourophor and 4 μL quencher molecule of the appropriate oligonucleotide for a final concentration of 0.2 PM, 4 μL 5 M sodium chloride (final concentration of 1 M NaCl), and 4 μL of distilled H2O. […] This mixture was analysed without prior annealing.
(§3) Fluorescence melting profiles were measured using a Roche LightCycler using a total reaction volume of 20 μL. […] Annealing steps and melting steps were all recorded and changes in fluorescence were measured at 520 nm. […]

For experiment [4] the test system is unchanged. Put plainly: FRET DNA melting, FIG. 17 top sequence. It counts as binding. The conditions noted are these: suggests interstrand cross-link formation.
Excerpt: Further FRET DNA melting studies were undertaken on a number of molecules using three fluorescently labelled sequences. The sequences (FIG. 17) were designed to provide additional evidence that the series can form inter- and intrastrand cross-links. Inosines were inserted in place of traditional DNA bases in some cases to limit the number of binding sites available for the compounds to interact with. The short duplexes used in this FRET study are relatively unstable in the duplex form with a melting temperature below 30° C. so that, in the absence of ligand, a large part of the melting occurs below the starting temperature of the experiment. […] Increasing concentrations of 13 cause a greater amount of the melting transition to appear at the higher temperature (i.e. a greater number of the DNA molecules are cross-linked). […]
as §2, §3

As to `COc1cc2c(cc1OCCCC(=O)N1C[C@@H](CCl)c3c1cc(O)c1ccccc31)N=C[C@@H]1CCCCN1C2=O` [Compound 13, (S)-3-(4-((S)-1-(Chloromethyl)-5-hydroxy-1,2-dihydro-3H-benzo[e]indol-3-yl)-4-oxobutoxy)-2-methoxy-7,8,9,10-tetrahydrobenzo[e]-pyrido[1,2-a][1,4]diazepin-12(6aH)-one], the IC50 in experiment [1] is 0.68 nM; in experiment [2], 0.42 nM. Besides, the “change of melting temperature with compound concentration” value in experiment [3] (FIG. 14 bottom panel) is listed as “increases significantly”. In experiment [3] (duplex alone melts below 30° C., suggests intra-strand cross-link), the Tm value was 60 °C.
Turning to `COc1cc2c(cc1OCc1cccc(CC(=O)N3C[C@@H](CCl)c4c3cc(O)c3ccccc43)c1)N=C[C@@H]1CCCCN1C2=O` [Compound 42, (S)-3-((3-(2-((S)-1-(Chloromethyl)-5-hydroxy-1,2-dihydro-3H-benzo[e]indol-3-yl)-2-oxoethyl)benzyl)oxy)-2-methoxy-7,8,9,10-tetrahydrobenzo[e]pyrido[1,2-a][1,4]diazepin-12(6aH)-one], in experiment [4], the Tm value is approximately 80 °C.
